According to the NIST ThermoML archive (doi:10.1021/je900346t):
Numbers after ± are expanded uncertainties.

Columns and labels:
[1] = Molar enthalpy of transition or fusion; conditions: Crystal; DSC
[2] = Crystal; DTA

Q: For CCCCCCCCCCCCCCCc1cccc(O)c1 [3-pentadecylphenol], which “Molar enthalpy of transition or fusion” value [1] is on record?
A: Its value is 9.1 ± 0.196 kcal/mol.

Q: What about the Normal melting temperature [2] of the same compound?
A: The Normal melting temperature was 49.20 ± 1.1 °C.
